# Data published in patent US20060134197A1, “Method of reducing unpleasant taste and/or unpleasant odor” (priority 2002, published 2006).
# Experiments:
# [1] = Inhibiting the production of lower aldehydes and 2,3-butandion from heated cacao powder; details: 1 g cacao powder in 4 ml of 2.5% saccharide solution; microwave, then 100° C. five minutes
# Source text: “Stuffy smell”, meaning a kind of foreign smell generated from cocoa, chocolate, and compositions thereof during their processes, is known to deteriorate their flavor. 2,3-Butandion and lower aldehydes are known as a causative substance of foreign smell. On the other hand, […], classified in lower aldehydes, is known as one of the aromatic ingredients of chocolates. To confirm the effect of saccharide derivatives of α,α-trehalose on inhibiting the production of such compounds, the following experiment was carried out. Four milliliters of 2.5%, on a dry solid basis, saccharide solution containing either of sucrose, “TREHA®” (an α,α-trehalose commercialized by Hayashibara Biochemical Laboratories, Inc., Okayama, Japan), a commercialized enzyme-treated starch syrup and a syrupy saccharide mixture containing saccharide derivatives of α,α-trehalose prepared in Example 1 (on a dry solid basis about 53% of saccharide derivatives of α,α-trehalose) was placed in a 20-ml vial and admixed with 1 g of cacao powder. The resulting vial was covered with a plastic warp and heated by a microwave oven (500 W) for five seconds. As a control, 4 ml of distilled water and 1 g of cacao powder were placed in the vial and treated similarly as in the saccharide solutions. These vials were sealed with a butyl gum cap over the plastic wrap and heated at 100° C. in a heat block for five minutes. Two milliliters of the resulting headspace gas was subjected to gas chromatography to measure the contents of lower aldehydes and 2,3-butandion according to the method in Experiment 5-4. The amount of total aldehydes was calculated by totalizing the measured amounts of three kinds of aldehydes and other aldehydes listed in Table 8.
# The resulting value of the production of aldehydes or 2,3-butandion of each of the test samples was compared with the value of control defined as 100 to calculate the relative value of the production of them. And then, the relative rate of inhibiting the production of them was calculated by 100 minus the relative value.
# [2] = Panel test of lowering iron taste and/or smell of aqueous bivalent iron ion solution; parameters: key to Effect on lowering iron taste and/or smell: “Not effective (symbol “−”)” meaning of that the test aqueous solution showed no difference in iron taste and/or smell from that the control aqueous solution; “Slightly effective (symbol “+”)”, the test aqueous solution showes weaker iron taste and/or smell than the control aqueous solution but the deference was not significant; “Effective (symbol “++”)”, the test aqueous solution showed a slight iron taste and/or smell but it was significantly weaker than that of the control aqueous solution; “Strongly effective (symbol “+++”)”, the test aqueous solution showed almost no iron taste and/or smell; details: for Effect on lowering iron taste and/or smell: 5 mg bivalent iron per 100 ml, 12 panels; for Concentration effective on lowering unpleasant taste and/or smell of aqueous iron ion solution: to the total weight of the aqueous solution, dry solid basis
# Experimental: To confirm the effect of various saccharides on inhibiting taste and/or smell of bivalent iron ion, the following experiment was carried out. An aqueous solution containing bivalent iron ion was prepared by dissolving 0.05556 part by weight of ammonium ferric citrate (iron content of about 18%), and 0.1 part by weight of ascorbic acid in 100 parts by weight of deionized water. Test aqueous solutions containing 5 mg of bivalent iron per 100 ml of water and 0.5, 1.0, 1.5, 2.0 or 5.0% of saccharide selected from sucrose, maltose (hydrous crystalline maltose commercialized by Hayashibara Biochemical Laboratories, Inc., Okayama, Japan, purify 99.0% or more), α,α-trehalose (hydrous crystalline α,α-trehalose commercialized by Hayashibara Biochemical Laboratories, Inc., Okayama, Japan, purity 99.0% or more), α-glucosyl α,α-trehalose (hydrous crystalline α-glucosyl α,α-trehalose prepared in Experiment B-1 of Japanese Patent Publication (Kokai) No. 291,986/1995, purity 99.0% or more), and […] (powdery α-maltosyl α,α-trehalose prepared in Example 5 described following, purity 98.1%) were prepared by admixing the above aqueous solution containing bivalent iron with an equal volume of a pre-prepared aqueous solution containing any one of the above saccharides at a concentration of 1.0, 2.0, 3.0, 4.0 or 10.0%, on a dry solid basis. As a control, an aqueous solution was prepared by admixing the aqueous solution containing bivalent iron ion with an equal volume of warter instead of the aqueous saccharide solution.
# The effect on lowering iron taste and/or smell, namely unpleasant taste and/or smell of iron ion existing in a test aqueous solution at a concentration of 5 mg per 100 ml was judged by a panel test using 12 panels. […] In the judgement for each test aqueous solution, ten or more of 12 panels answered the same judgement.
# [3] = Inhibiting the production of hydrogen sulfide from L-cysteine due to heat-decomposition; details: 2.5 g L-cysteine hydrochloride and 5 g saccharide in 50 ml; 80° C. for 15 minutes; 100 minus relative value, control defined as 100
# Source text: Two and half grams of precisely weighted L-cysteine hydrochloride (special reagent grade) and on a dry solid basis 5 g of a precisely measured saccharide sample; i.e. hydrous crystalline α,α-trehalose (reagent grade, purity 99.0% or more, commercialized by Hayashibara Biochemical Laboratories, Inc., Okayama, Japan), α-maltosyl α,α-trehalose prepared in the following Example 5 (purity 98.1%), or a reagent grade maltotetraose (purity 97.0% or more, commercialized by Hayashibara Biochemical Laboratories, Inc., Okayama, Japan); were placed in a 50-ml volume measuring flask and dissolved in deionized water to give a final volume of 50 ml. As a control, 2.5 g of precisely measured L-cysteine hydrochloride (special reagent grade) was dissolved in deionized water to give a final volume of 50 ml. Five ml of each sample was place into a 20-ml volume vial, sealed with a butyl gum cap, and kept at 80° C. for 15 minutes in an incubator. Hydrogen sulfide contained in 10 ml of the resulting headspace gas was measured by “GASTECH No. 4 LT”, a hydrogen sulfide detector commercialized by GL Science Corporation, under an aspiration time of one minute. The resulting value of the production of hydrogen sulfide of each test sample was compared with the value of control defined as 100 to calculate the relative value of the production of hydrogen sulfide. And then, the relative rate of inhibiting the production of hydrogen sulfide was calculated by 100 minus the relative value.
# [4] = Separately carried panel test of smell of cocoa samples; details: all of nine panels
SMILES,"Relative rate of inhibiting the production of 2,3-butandion [1]",Relative rate of inhibiting the production of acetaldehyde [1],Relative rate of inhibiting the production of isobutanal [1],Relative rate of inhibiting the production of other aldehydes [1],Relative rate of inhibiting the production of propanal [1],Relative rate of inhibiting the production of total aldehydes [1],Effect on lowering iron taste and/or smell ([2]; saccharide 0.5%),Effect on lowering iron taste and/or smell ([2]; saccharide 1.0%),Effect on lowering iron taste and/or smell ([2]; saccharide 1.5%),Effect on lowering iron taste and/or smell ([2]; saccharide 2.0%),Effect on lowering iron taste and/or smell ([2]; saccharide 5.0%),Concentration effective on lowering unpleasant taste and/or smell of aqueous iron ion solution [2],Relative rate of inhibiting the production of hydrogen sulfide [3],Smell of cocoa sample judged by panels [4]
"OC[C@H]1O[C@@](CO)(O[C@H]2O[C@H](CO)[C@@H](O)[C@H](O)[C@H]2O)[C@@H](O)[C@@H]1O [Sucrose, sucrose]",95,44,52,0,43,48,−,−,−,−,−,not effective,,
"OC[C@H]1O[C@H](O[C@H]2O[C@H](CO)[C@@H](O)[C@H](O)[C@H]2O)[C@H](O)[C@@H](O)[C@@H]1O [α,α-Trehalose, α,α-trehalose]",100,50,58,0,47,53,−,−,+,+,++,≥ 1.5%,52,favorite smell
